Results on one compound are retold here after patent US8629293B2, “Process for the preparation of FE(III) chelates of N,N′-DI(2-hydroxybenzyl)-ethylenediamine-N,N′-diacetic acid and its derivatives” (Przedsiebiorstwo Produkcyjno-Consultingowe Adob SP. Z O.O. …, priority 2009, dated 2014).

For experiment [1], the system named is 10-year old nectarine trees, cultivar "Zephyr" grafted on the GF677 root stock. Nature of the experiment: Field test, testing field No. 1: SPAD index. To be noted: 0.9 g of the chelated Fe/tree. It is filed as in vivo. On the procedure: (§1) The comparison included two chelate agents for supplementing iron deficiencies: HBED/Fe^3+ as well as the commercially available, highly purified EDDHA/Fe^3+. The studies were carried out on two fields with the soil having an alkaline pH as well as a high concentration of calcium ions. The chelates were applied directly to the soil by means of a dripper immersed in the soil.
10-year old nectarine trees, cultivar “Zephyr” grafted on the GF677 root stock
The chelates were applied at the following concentrations: • EDDHA/Fe^3+: high concentration (0.9 g of the chelated Fe/tree) • HBED/Fe^3+: low concentration (0.45 g of the chelated Fe/tree) • HBED/Fe^3+: high concentration (0.9 g of the chelated Fe/tree) • control trial: without Fe
The chelate solutions of various concentrations were applied in three portions (50%, 30%, and finally 20% of the whole dose, respectively) directly to the ground below the dripper.
The SPAD index was measured approximately every two weeks: on day 14, 29, 44, 61, 88 and 99 after application of the chelates.

The test system of experiment [2] is 7-year old trees of flat peach (Prunus persica var. platycarpa) grafted on the GF677 root stock with visible symptoms of chlorosis. Nature of the experiment: Field test, testing field No. 2: SPAD index of leaves. It is filed as in vivo. To be noted: 0.9 g of the chelated Fe/tree. Here is the method:
as §1
7-year old trees of flat peach (Prunus persica var. platycarpa) grafted on the GF677 root stock with visible symptoms of chlorosis
The chelates were applied at the following concentrations: • EDDHA/Fe^3+: high concentration (0.9 g of the chelated Fe/tree) • HBED/Fe^3+: high concentration (0.9 g of the chelated Fe/tree) • control trial: without Fe
The chelate solutions were dosed directly to the ground below the dripper. In this case, the whole dose of the chelates were applied in one portion. The symptoms of chlorosis were visible at the beginning of the experiment.
The samples for determination of the SPAD index of leaves were taken approximately every two weeks (on day 0, 20, 40 and 63 after application of the chelates).

Consider `O=C([O-])C(NCCNC(C(=O)[O-])c1ccccc1[O-])c1ccccc1[O-].[Fe+3]` (stereo not shown) [EDDHA/Fe^3+, reference compound], for which the “The SPAD index of the fructifying branches” value in experiment [1] (day 14 after application) came out at 36.00; in experiment [1] (day 29 after application) it was 37.00; in experiment [1] (day 44 after application), 37.82; in experiment [1] (day 61 after application), 37.82; in experiment [1] (day 88 after application), 39.09; in experiment [1] (day 99 after application), 38.91. The “The SPAD index of the non-fructifying branches” value in experiment [1] (day 14 after application) was 35.69; in experiment [1] (day 29 after application), 37.77; in experiment [1] (day 44 after application), 36.23; in experiment [1] (day 61 after application), 35.15; in experiment [1] (day 88 after application), 37.38; in experiment [1] (day 99 after application) it was 36.92. Besides, the “ΔSPAD index of leaves” value in experiment [2] (day 0 after application) came to 0; in experiment [2] (day 20 after application) it was 13.00; in experiment [2] (day 40 after application) it was 17.50; in experiment [2] (day 63 after application) it was 17.25.
